Experimental data reported in US20120181173A1, “ELECT[…] FOR THE DETECTION OF ANALYTES IN LIQUID MEDIA” (priority 2009, published 2012).
Several values for one entry are separate records, joined by “and”; a condition that tells them apart may be missing. Equal entries are not always repeated.

Columns and labels:
[1] = biological target: T1, acetylcholinesterase enzyme (Electrophorus electricus, UniProt O42275); assay: Inhibition of acetylcholinesterase by chlorpyrifos oxon in the Example 4 sensor (silver intermediate layer; graphite; PEDOT layer with PVA layer, d1); conditions: Example 4 sensor (silver + d1), 100 mV
[2] = biological target: T1, acetylcholinesterase enzyme; assay: Inhibition of acetylcholinesterase by chlorpyrifos oxon in the Example 3 sensor (graphite; cobalt phthalocyanine intermediate layer; PEDOT and PVA, d2); conditions: Example 3 sensor (CoPh + d2), 100 mV
[3] = biological target: T1, acetylcholinesterase enzyme; assay: Inhibition of acetylcholinesterase by chlorpyrifos oxon in the Example 1 sensor (graphite; PEDOT layer with PVA layer, d1); conditions: Example 1 sensor (d1), 100 mV
[4] = biological target: T1, acetylcholinesterase enzyme; assay: Inhibition of acetylcholinesterase by chlorpyrifos oxon in the Example 2 sensor (graphite; PEDOT and PVA conductive gel, d2); conditions: Example 2 sensor (d2), 100 mV

T1 sequence (O42275 24-633): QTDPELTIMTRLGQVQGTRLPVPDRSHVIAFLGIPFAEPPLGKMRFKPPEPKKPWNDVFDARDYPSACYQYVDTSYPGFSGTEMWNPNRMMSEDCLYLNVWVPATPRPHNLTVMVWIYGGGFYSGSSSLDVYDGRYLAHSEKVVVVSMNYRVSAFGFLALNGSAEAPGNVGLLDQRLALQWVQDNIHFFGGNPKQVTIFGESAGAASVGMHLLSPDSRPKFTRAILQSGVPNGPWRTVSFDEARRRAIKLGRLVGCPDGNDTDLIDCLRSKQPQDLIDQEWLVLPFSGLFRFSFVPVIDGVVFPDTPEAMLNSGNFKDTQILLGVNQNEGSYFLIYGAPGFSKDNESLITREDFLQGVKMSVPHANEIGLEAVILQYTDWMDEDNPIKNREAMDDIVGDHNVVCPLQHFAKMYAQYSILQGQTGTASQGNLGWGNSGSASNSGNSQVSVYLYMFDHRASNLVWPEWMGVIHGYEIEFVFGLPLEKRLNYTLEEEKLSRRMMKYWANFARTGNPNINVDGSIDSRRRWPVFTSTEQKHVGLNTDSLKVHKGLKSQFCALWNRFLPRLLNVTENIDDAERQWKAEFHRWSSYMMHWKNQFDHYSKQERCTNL

chlorpyrifos oxon
% of inhibition in the presence of pesticide ([1]; chlorpyrifos oxon 1 · 10^−9 M): 49.50% | % of inhibition in the presence of pesticide ([1]; chlorpyrifos oxon 2 · 10^−10 M): 8% and 8.28% | % of inhibition in the presence of pesticide ([1]; chlorpyrifos oxon 3 · 10^−9 M): 72.23% | % of inhibition in the presence of pesticide ([1]; chlorpyrifos oxon 3 · 10^−10 M): 19.14% | % of inhibition in the presence of pesticide ([1]; chlorpyrifos oxon 4 · 10^−10 M): 24.51% | % of inhibition in the presence of pesticide ([1]; chlorpyrifos oxon 5 · 10^−10 M): 30.10% | % of inhibition in the presence of pesticide ([1]; chlorpyrifos oxon 9 · 10^−10 M): 47.55% | % of inhibition in the presence of pesticide ([2]; chlorpyrifos oxon 1 · 10^−9 M): 52.36% | % of inhibition in the presence of pesticide ([2]; chlorpyrifos oxon 2 · 10^−10 M): 9.82% | % of inhibition in the presence of pesticide ([2]; chlorpyrifos oxon 3 · 10^−9 M): 74.80% | % of inhibition in the presence of pesticide ([2]; chlorpyrifos oxon 3 · 10^−10 M): 10.70% | % of inhibition in the presence of pesticide ([2]; chlorpyrifos oxon 4 · 10^−10 M): 32.51% | % of inhibition in the presence of pesticide ([2]; chlorpyrifos oxon 5 · 10^−10 M): 31.46% | % of inhibition in the presence of pesticide ([2]; chlorpyrifos oxon 9 · 10^−10 M): 49.18% | % of inhibition in the presence of pesticide ([3]; chlorpyrifos oxon 1 · 10^−9 M): 46.82% | % of inhibition in the presence of pesticide ([3]; chlorpyrifos oxon 2 · 10^−10 M): 7% and 7.21% | % of inhibition in the presence of pesticide ([3]; chlorpyrifos oxon 3 · 10^−9 M): 69.20% | % of inhibition in the presence of pesticide ([3]; chlorpyrifos oxon 3 · 10^−10 M): 16.11% | % of inhibition in the presence of pesticide ([3]; chlorpyrifos oxon 4 · 10^−10 M): 22.41% | % of inhibition in the presence of pesticide ([3]; chlorpyrifos oxon 5 · 10^−10 M): 27.09% | % of inhibition in the presence of pesticide ([3]; chlorpyrifos oxon 9 · 10^−10 M): 44.54% | % of inhibition in the presence of pesticide ([4]; chlorpyrifos oxon 1 · 10^−9 M): 41.71% | % of inhibition in the presence of pesticide ([4]; chlorpyrifos oxon 3 · 10^−9 M): 61.15% | % of inhibition in the presence of pesticide ([4]; chlorpyrifos oxon 3 · 10^−10 M): 10% and 10.09% | % of inhibition in the presence of pesticide ([4]; chlorpyrifos oxon 4 · 10^−10 M): 15.31% | % of inhibition in the presence of pesticide ([4]; chlorpyrifos oxon 5 · 10^−10 M): 22.19% | % of inhibition in the presence of pesticide ([4]; chlorpyrifos oxon 9 · 10^−10 M): 39.75%
